Reference: the NIST ThermoML archive (doi:10.1021/acs.jced.9b00507)

Conditions: 100 kPa, Liquid; for viscosity: Concentric cylinders viscometry; for mass density: Vibrating tube method

CCCCCCn1cc[n+](C)c1.O=[N+]([O-])[O-] [1-hexyl-3-methylimidazolium nitrate]
Conditions	mass density [kg/m3]	viscosity [mPa·s]
293.15 K	1120.3	804.17
298.15 K	1117.5	545.25
303.15 K	1114.3	369.14
308.15 K	1111.1	257.59
313.15 K	1107.8	185.67
318.15 K	1104.7	140.18
323.15 K	1101.6	110.94
